Columns and labels:
[1] = biological target: T1, mitochondrial complex III (Mus musculus, UniProt P00158); test: Complex III enzyme activity in mitochondrial fractions of C2C12 cells (cytochrome c reduction at 550 nm); assay type: biochemical; settings: compound at 100 μM; background by antimycin A (2.5 μM); n = 3 independent experiments
T1 construct: the supernatant containing the mitochondria was pelleted at 14,000 g; endogenous in cells; host or cells: C2C12 cells, mitochondrial fraction
Procedure: C2C12 pellets of 20·10^6 cells were snap frozen in liquid nitrogen and kept at −80° C. until use. For preparation of the mitochondrial fractions, tissues and cells were homogenized, resuspended in 10 mM Tris-HCl (pH 7.6), and snap frozen in aliquots as follows: cells were resuspended in 10 mM Tris-HCl and pottered, and sucrose was added (215 mM). The lysate was cleared of unbroken cells by centrifugation (10 minutes 600 g) after which the supernatant containing the mitochondria was pelleted at 14,000 g for 10 minutes, resuspended in 10 mM Tris-HCl (pH 7.6), and snap frozen in aliquots. Complex III enzyme activity was measured spectrophotometrically in duplicate as described before by determination of the cytochrome c reduction at 550 nm (Janssen et al., 2007; Mourmans et al., 1997; Rodenburg, 2011). For these measurements the following substrates were used: decylubiquinol (300 μM) and cytochrome c (50 μM). Background substraction was based on decylubiquinol auto-oxidation rates for FIG. 2, and on antimycin A (2.5 μM) for table 4. The enzyme activity was determined using the linear domain of the curve. These experiments were generally performed in small reaction volumes to increase throughput. Experiments in larger reaction volumes can improve reliability of obtained values, and are planned.

[2] = biological target: T2, catalytic domain of the human HMG-CoA reductase (Homo sapiens, UniProt P04035); test: HMG-CoA reductase activity and inhibition assay (Sigma CS-1090 kit, NADPH oxidation at 340 nm); assay type: biochemical; settings: for HMGR activity (% of control) Mean (SEM): compound at 300 nM, n = 3 independent experiments; for IC50: dose-response curve of FIG. 2C, 95%-CI printed in the row below
T2 construct: containing the catalytic domain of the human HMG-CoA reductase; purchased Sigma-Aldrich CS-1090
T2 sequence (P04035 426-888 limits assumed): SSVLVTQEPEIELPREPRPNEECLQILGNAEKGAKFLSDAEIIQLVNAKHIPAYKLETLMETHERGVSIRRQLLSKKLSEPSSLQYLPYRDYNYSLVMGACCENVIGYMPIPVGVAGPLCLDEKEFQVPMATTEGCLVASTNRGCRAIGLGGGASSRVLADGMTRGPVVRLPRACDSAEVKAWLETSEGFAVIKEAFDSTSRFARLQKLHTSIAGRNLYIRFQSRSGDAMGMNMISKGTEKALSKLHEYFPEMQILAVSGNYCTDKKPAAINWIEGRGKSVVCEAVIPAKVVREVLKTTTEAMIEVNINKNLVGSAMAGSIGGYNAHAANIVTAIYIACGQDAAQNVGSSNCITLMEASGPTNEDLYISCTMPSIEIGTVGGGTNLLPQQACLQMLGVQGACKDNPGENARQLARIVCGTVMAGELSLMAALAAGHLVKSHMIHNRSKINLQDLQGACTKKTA
Procedure: The human HMG-CoA reductase activity and inhibition assays were performed using the HMG-CoA reductase Assay Kit from Sigma-Aldrich (Sigma CS-1090), containing the catalytic domain of the human HMG-CoA reductase. Enzyme activity was determined spectrophotometrically, measuring the oxidation of NADPH at 340 nm. The reaction mixture contained: 0.13 mM HMG-CoA, HMG-CoA reductase, and 50 mM Tris-HCl, (pH 7.5). After 15 min incubation at 37° C., the reaction was started with the addition of 0.13 mM NADPH, and monitored for 30 min. The enzyme activity was determined using the linear domain of the curve. These experiments were generally performed in small reaction volumes to increase throughput. Experiments in larger reaction volumes can improve reliability of obtained values, and are planned.

complex III activity (% of control) Mean (SEM) [1]	HMGR activity (% of control) Mean (SEM) [2]	IC50 [2]	SMILES
54.34 (7.70) % of control	97.37 (3.89) % of control	–	CC(C)c1c(C(=O)Nc2ccccc2)c(-c2ccccc2)c(-c2ccc(F)cc2)n1CC[C@@H](O)C[C@@H](O)CC(N)=O [atorvastatin amide, 1-((3R,5R)-7-amino-3,5-dihydroxy-7-oxoheptyl)-5-(4-fluorophenyl)-2-isopropyl-N,4-diphenyl-1H-pyrrole-3-carboxamide]
94.39 (6.41) % of control	81.57 (10.29) % of control	–	CC(C)c1nc(N(C)S(C)(=O)=O)nc(-c2ccc(F)cc2)c1/C=C/[C@@H](O)C[C@@H](O)CC(N)=O [rosuvastatin amide, (3R,5S,E)-7-(4-(4-fluorophenyl)-6-isopropyl-2-(N-methylmethylsulfonamido)-pyrimidin-5-yl)-3,5-dihydroxyhept-6-enamide]
90.25 (7.98) % of control	72.81 (9.03) % of control	–	CC(C)c1nc(N(C)S(C)(=O)=O)nc(-c2ccc(F)cc2)c1/C=C/[C@@H](O)C[C@@H](O)CC(=O)NO [rosuvastatin hydroxamic acid, (3R,5S,E)-7-(4-(4-fluorophenyl)-6-isopropyl-2-(N-methylmethylsulfonamido)pyrimidin-5-yl)-N,3,5-trihydroxyhept-6-enamide]
92.95 (10.32) % of control	70.19 (6.79) % of control	–	CC[C@H](C)C(=O)O[C@H]1C[C@@H](C)C=C2C=C[C@H](C)[C@H](CC[C@@H](O)C[C@@H](O)CC(=O)NO)[C@H]21 [lovastatin hydroxamic acid, (1S,3R,7S,8S,8aR)-8-((3R,5R)-3,5-dihydroxy-7-(hydroxyamino)-7-oxoheptyl)-3,7-dimethyl-1,2,3,7,8,8a-hexahydronaphthalen-1-yl (S)-2-methylbutanoate]
104.10 (12.47) % of control	102.30 (10.00) % of control	–	CC[C@H](C)C(=O)O[C@H]1C[C@@H](C)C=C2C=C[C@H](C)[C@H](CC[C@@H](O)C[C@@H](O)CC(N)=O)[C@H]21 [lovastatin amide, (1S,3R,7S,8S,8aR)-8-((3R,5R)-7-amino-3,5-dihydroxy-7-oxoheptyl)-3,7-dimethyl-1,2,3,7,8,8a-hexahydronaphthalen-1-yl (S)-2-methylbutanoate]
85.24 (4.09) % of control	81.28 (4.70) % of control	–	CC(C)c1nc(N(C)S(C)(=O)=O)nc(-c2ccc(F)cc2)c1/C=C/[C@@H](O)C[C@@H](O)Cc1nnn[nH]1 [rosuvastatin tetrazole, N-(5-((3S,5S,E)-3,5-dihydroxy-6-(1H-tetrazol-5-yl)hex-1-en-1-yl)-4-(4-fluorophenyl)-6-isopropylpyrimidin-2-yl)-N-methylmethanesulfonamide]
73.77 (7.57) % of control	110.10 (11.81) % of control	–	CCC(C)(C)C(=O)O[C@H]1C[C@@H](C)C=C2C=C[C@H](C)[C@H](CC[C@@H](O)C[C@@H](O)CC(N)=O)[C@H]21 [simvastatin amide, (1S,3R,7S,8S,8aR)-8-((3R,5R)-7-amino-3,5-dihydroxy-7-oxoheptyl)-3,7-dimethyl-1,2,3,7,8,8a-hexahydronaphthalen-1-yl 2,2-dimethylbutanoate]
85.85 (10.62) % of control	88.17 (4.21) % of control	–	CC(C)c1nc(N(C)S(C)(=O)=O)nc(-c2ccc(F)cc2)c1/C=C/[C@@H](O)C[C@@H](O)Cc1nc(=O)o[nH]1 [rosuvastatin oxo-oxadiazole, N-(5-((3S,5S,E)-3,5-dihydroxy-6-(5-oxo-2,5-dihydro-1,2,4-oxadiazol-3-yl)hex-1-en-1-yl)-4-(4-fluorophenyl)-6-isopropylpyrimidin-2-yl)-N-methylmethane Sulfonamide]
80.98 (3.75) % of control	–	–	CC(C)c1c(C(=O)Nc2ccccc2)c(-c2ccccc2)c(-c2ccc(F)cc2)n1CC[C@@H]1C[C@H](O)CC(=O)O1 [atorvastatin lactone, 5-(4-fluorophenyl)-1-(2-((2R,4S)-4-hydroxy-6-oxotetrahydro-2H-pyran-2-yl)ethyl)-2-isopropyl-N,4-diphenyl-1H-pyrrole-3-carboxamide, reference compound]
95.96 (11.43) % of control	102.50 (7.87) % of control	–	CC(C)c1nc(N(C)S(C)(=O)=O)nc(-c2ccc(F)cc2)c1/C=C/[C@@H](O)C[C@@H](O)CC#N [rosuvastatin nitrile, N-(5-((3S,5S,E)-6-cyano-3,5-dihydroxyhex-1-en-1-yl)-4-(4-fluorophenyl)-6-isopropylpyrimidin-2-yl)-N-methylmethanesulfonamide]
44.55 (6.27) % of control	–	–	CCC(C)(C)C(=O)O[C@H]1C[C@@H](C)C=C2C=C[C@H](C)[C@H](CC[C@@H]3C[C@@H](O)CC(=O)O3)[C@H]21 [simvastatin lactone, reference compound]
50.43 (5.71) % of control	92.40 (8.84) % of control	–	CCC(C)(C)C(=O)O[C@H]1C[C@@H](C)C=C2C=C[C@H](C)[C@H](CC[C@@H](O)C[C@@H](O)CC(=O)NC)[C@H]21 [simvastatin methylamide, (1S,3R,7S,8S,8aR)-8-((3R,5R)-3,5-dihydroxy-7-(methylamino)-7-oxoheptyl)-3,7-dimethyl-1,2,3,7,8,8a-hexahydronaphthalen-1-yl 2,2-dimethylbutanoate]
68.59 (5.73) % of control	38.83 (5.19) % of control	39 nM	CCC(C)(C)C(=O)O[C@H]1C[C@@H](C)C=C2C=C[C@H](C)[C@H](CC[C@@H](O)C[C@@H](O)CC(=O)NO)[C@H]21 [simvastatin hydroxamic acid, (1S,3R,7S,8S,8aR)-8-((3R,5R)-3,5-dihydroxy-7-(hydroxyamino)-7-oxoheptyl)-3,7-dimethyl-1,2,3,7,8,8a-hexahydronaphthalen-1-yl 2,2-dimethylbutanoate]
63.21 (3.31) % of control	–	–	CC[C@H](C)C(=O)O[C@H]1C[C@@H](C)C=C2C=C[C@H](C)[C@H](CC[C@@H]3C[C@@H](O)CC(=O)O3)[C@H]21 [lovastatin lactone, reference compound]
–	68.18 (14.81) % of control	–	CC[C@H](C)C(=O)O[C@H]1C[C@@H](C)C=C2C=C[C@H](C)[C@H](CC[C@@H](O)C[C@@H](O)CC(=O)O)[C@H]21 [lovastatin carboxylic acid, reference compound]
–	24.39 (8.91) % of control	–	CC(C)c1c(C(=O)Nc2ccccc2)c(-c2ccccc2)c(-c2ccc(F)cc2)n1CC[C@@H](O)C[C@@H](O)CC(=O)O [atorvastatin carboxylic acid, reference compound]
–	63.10 (10.70) % of control	39 nM	CCC(C)(C)C(=O)O[C@H]1C[C@@H](C)C=C2C=C[C@H](C)[C@H](CC[C@@H](O)C[C@@H](O)CC(=O)O)[C@H]21 [simvastatin carboxylic acid, reference compound]
–	24.09 (3.30) % of control	–	CC(C)c1nc(N(C)S(C)(=O)=O)nc(-c2ccc(F)cc2)c1/C=C/[C@@H](O)C[C@@H](O)CC(=O)O [rosuvastatin carboxylic acid, reference compound]

From patent publication US20190038588A1, “NOVEL CLASS OF COMPOUNDS FOR THE TREATMENT OF CARDIOVASCULAR DISEASE” (STICHTING KATHOLIEKE UNIVERSITEIT, priority 2016, published 2019)
